Holding throughout (format): functional
Assay [1] relates to Mycobacterium tuberculosis. In words: Antimicrobial activity against non replicating persistence Mycobacterium tuberculosis H37Rv in aerobic condition assessed by relative light units after 7 days. Particulars: 168 h.
Assay [2] concerns Mycobacterium tuberculosis. The experiment in a line: Antimicrobial activity against non replicating persistence Mycobacterium tuberculosis H37Rv in aerobic condition assessed as bacterial density after 7 days. As to conditions: 168 h.
In assay [3] the test system is Mycobacterium tuberculosis. In words: Antimicrobial activity against non replicating persistence Mycobacterium tuberculosis H37Rv in anaerobic condition assessed as relative light unit after 11 days by LORA assay. As to conditions: 264 h.
Assay [4] deals with Mycobacterium tuberculosis. The experiment in a line: Antimicrobial activity against non replicating persistence Mycobacterium tuberculosis H37Rv in anaerobic condition assessed as bacterial density after 10 days. Particulars: 240 h.

Molecules are shown by their SMILES. In brackets after ≈: the same amount, converted by molar mass. Bounds are passed on as bounds.

As a reminder, the MIC is the least concentration at which growth counts as inhibited. As to `O=C1OCCN1/N=C/c1ccc([N+](=O)[O-])o1` [FURAZOLIDONE], the MIC came to 77.4 µM (≈ 17.4 µg/mL) in assay [1], 1 µM (≈ 0.225 µg/mL) in assay [2], 9.7 µM (≈ 2.18 µg/mL) in assay [3] and 44.8 µM (≈ 10.1 µg/mL) in assay [4].

Take `CN[C@@H]1[C@H](O[C@H]2[C@H](O[C@H]3[C@H](O)[C@@H](O)[C@H](N=C(N)N)[C@@H](O)[C@@H]3N=C(N)N)O[C@@H](C)[C@]2(O)C=O)O[C@@H](CO)[C@H](O)[C@H]1O` (stereo in doubt) [STREPTOMYCIN]: the minimal inhibitory concentration (MIC) was 0.5 µM (≈ 0.291 µg/mL) in assay [1], no more than 0.5 µM in assay [2], 1.2 µM (≈ 0.698 µg/mL) in assay [3] and 0.8 µM (≈ 0.465 µg/mL) in assay [4].

In the case of `NC(=O)c1cnccn1` [PYRAZINAMIDE], the MIC is greater than 128 µM in assay [1], greater than 128 µM in assay [2], greater than 128 µM in assay [3] and 96 µM (≈ 11.8 µg/mL) in assay [4].

With `Cc1ncc([N+](=O)[O-])n1CCO` [METRONIDAZOLE], the MIC is greater than 128 µM in assay [1], greater than 128 µM in assay [2], greater than 128 µM in assay [3] and 40 µM (≈ 6.85 µg/mL) in assay [4].

Consider `N[C@@H]1CONC1=O` [CYCLOSERINE], for which the MIC in assay [1] was 63.7 µM (≈ 6.5 µg/mL); in assay [2], 60.5 µM (≈ 6.18 µg/mL); in assay [3], greater than 128 µM; in assay [4], 125 µM (≈ 12.7 µg/mL).

In the case of `CCC[C@@H]1C[C@@H](C(=O)N[C@H](C(C)Cl)[C@H]2O[C@H](SC)[C@H](O)[C@@H](O)[C@H]2O)N(C)C1` (single isomer, unassigned) [CLINDAMYCIN], the MIC in assay [1], in assay [2], in assay [3] and in assay [4] was greater than 128 µM in each case.

As to `CN(C)c1ccc(O)c2c1C[C@H]1C[C@H]3[C@H](N(C)C)C(O)=C(C(N)=O)C(=O)[C@@]3(O)C(O)=C1C2=O` [MINOCYCLINE], the MIC in assay [1] turned out to be 7.1 µM (≈ 3.25 µg/mL); in assay [2], 7.2 µM (≈ 3.29 µg/mL); in assay [3], 53.5 µM (≈ 24.5 µg/mL); in assay [4] it was 38.4 µM (≈ 17.6 µg/mL).

For the molecule `O=C(O)c1cn(C2CC2)c2cc(N3CCNCC3)c(F)cc2c1=O` [CIPROFLOXACIN], the MIC in assay [1] was 1.5 µM (≈ 0.497 µg/mL); in assay [2], no more than 0.5 µM; in assay [3] it was greater than 128 µM; in assay [4] it was 33 µM (≈ 10.9 µg/mL).

As for `CC[C@@H](CO)NCCN[C@@H](CC)CO` [ETHAMBUTOL], the MIC in assay [1] was 1.8 µM (≈ 0.368 µg/mL); in assay [2], 1 µM (≈ 0.204 µg/mL); in assay [3], greater than 128 µM; in assay [4], greater than 128 µM.

As for `CC(=O)N1CCN(c2ccc(OC[C@H]3CO[C@](Cn4ccnc4)(c4ccc(Cl)cc4Cl)O3)cc2)CC1` [KETOCONAZOLE], the MIC in assay [1] was 13.9 µM (≈ 7.39 µg/mL); in assay [2] it was 7.6 µM (≈ 4.04 µg/mL); in assay [3], 53 µM (≈ 28.2 µg/mL); in assay [4] it was 53.3 µM (≈ 28.3 µg/mL).

For the molecule `CC[C@H]1OC(=O)[C@H](C)[C@@H](O[C@H]2C[C@@](C)(OC)[C@@H](O)[C@H](C)O2)[C@H](C)[C@@H](O[C@@H]2O[C@H](C)C[C@H](N(C)C)[C@H]2O)[C@](C)(OC)C[C@@H](C)C(=O)[C@H](C)[C@@H](O)[C@]1(C)O` [CLARITHROMYCIN], the MIC in assay [1] was 13.4 µM (≈ 10 µg/mL); in assay [2] it was 1.6 µM (≈ 1.2 µg/mL); in assay [3], greater than 128 µM; in assay [4] it was 18.7 µM (≈ 14 µg/mL).

`C[C@]1(Cn2ccnn2)[C@H](C(=O)O)N2C(=O)C[C@H]2S1(=O)=O` [TAZOBACTAM]: the MIC in assay [1], in assay [2], in assay [3] and in assay [4] was greater than 128 µM throughout.

Take `CC(=O)Nc1ccc(/C=N/NC(N)=S)cc1` [AMITHIOZONE]: the MIC is 14.6 µM (≈ 3.45 µg/mL) in assay [1], 31.3 µM (≈ 7.4 µg/mL) in assay [2], greater than 128 µM in assay [3] and 70.4 µM (≈ 16.6 µg/mL) in assay [4].

With `Nc1ccc(C(=O)O)c(O)c1` [AMINOSALICYLIC ACID], the MIC is 12.3 µM (≈ 1.88 µg/mL) in assay [1], 12.3 µM (≈ 1.88 µg/mL) in assay [2], greater than 128 µM in assay [3] and greater than 128 µM in assay [4].

For the molecule `CO[C@H]1/C=C/O[C@@]2(C)Oc3c(C)c(O)c4c(O)c(c(/C=N/N5CCN(C)CC5)c(O)c4c3C2=O)NC(=O)/C(C)=C\C=C\[C@H](C)[C@H](O)[C@@H](C)[C@@H](O)[C@@H](C)[C@H](OC(C)=O)[C@@H]1C` [RIFAMPIN], the MIC in assay [1] was 0.5 µM (≈ 0.411 µg/mL); in assay [2] it was no more than 0.5 µM; in assay [3], 1.8 µM (≈ 1.48 µg/mL); in assay [4], no more than 0.5 µM.

As for `CC[C@H]1OC(=O)[C@H](C)[C@@H](O[C@H]2C[C@@](C)(OC)[C@@H](O)[C@H](C)O2)[C@H](C)[C@@H](O[C@@H]2O[C@H](C)C[C@H](N(C)C)[C@H]2O)[C@](C)(OC)C[C@@H](C)C(=O)[C@H](C)[C@@H]2N(NCCCc3ccnc4ccccc34)C(=O)O[C@@]21C`, the MIC in assay [1] was 0.8 µM (≈ 0.766 µg/mL); in assay [2], 1.8 µM (≈ 1.72 µg/mL); in assay [3] it was 2.7 µM (≈ 2.58 µg/mL); in assay [4], 1.3 µM (≈ 1.24 µg/mL).

`CN[C@H](CC(C)C)C(=O)N[C@H]1C(=O)N[C@@H](CC(N)=O)C(=O)N[C@H]2C(=O)N[C@H]3C(=O)N[C@H](C(=O)N[C@H](C(=O)O)c4cc(O)cc(O)c4-c4cc3ccc4O)[C@H](O)c3ccc(c(Cl)c3)Oc3cc2cc(c3O[C@@H]2O[C@H](CO)[C@@H](O)[C@H](O)[C@H]2O[C@H]2C[C@](C)(N)[C@H](O)[C@H](C)O2)Oc2ccc(cc2Cl)[C@H]1O` [VANCOMYCIN]: the MIC was greater than 128 µM in assay [1], 15.5 µM (≈ 22.5 µg/mL) in assay [2], greater than 128 µM in assay [3] and 128 µM (≈ 186 µg/mL) in assay [4].

Take `NNC(=O)c1ccncc1` [ISONIAZID]: the MIC in assay [1] was no more than 0.5 µM; in assay [2], no more than 0.5 µM; in assay [3], greater than 128 µM; in assay [4] it was greater than 128 µM.

Regarding `CO[C@H]1/C=C/O[C@@]2(C)Oc3c(C)c(O)c4c(c3C2=O)C2=NC3(CCN(CC(C)C)CC3)NC2=C(NC(=O)/C(C)=C\C=C\[C@H](C)[C@H](O)[C@@H](C)[C@@H](O)[C@@H](C)[C@H](OC(C)=O)[C@@H]1C)C4=O` [RIFABUTIN], the MIC in assay [1] is 0.5 µM (≈ 0.424 µg/mL); in assay [2], no more than 0.5 µM; in assay [3], no more than 0.5 µM; in assay [4], no more than 0.5 µM.

With `CC1COc2c(N3CCN(C)CC3)c(F)cc3c(=O)c(C(=O)O)cn1c23` (stereo not given) [OFLOXACIN], the MIC in assay [1] is 2.3 µM (≈ 0.831 µg/mL); in assay [2], 0.7 µM (≈ 0.253 µg/mL); in assay [3], greater than 128 µM; in assay [4], 24.2 µM (≈ 8.75 µg/mL).

On to `O=C(Nc1ccc([N+](=O)[O-])cc1Cl)c1cc(Cl)ccc1O` [NICLOSAMIDE], for which the MIC in assay [1] was no more than 0.5 µM; in assay [2], no more than 0.5 µM; in assay [3], no more than 0.5 µM; in assay [4] it was 0.9 µM (≈ 0.294 µg/mL).

With `COc1c(N2C[C@@H]3CCCN[C@@H]3C2)c(F)cc2c(=O)c(C(=O)O)cn(C3CC3)c12` [MOXIFLOXACIN], the MIC in assay [1] is 0.5 µM (≈ 0.201 µg/mL); in assay [2], no more than 0.5 µM; in assay [3] it was 15.9 µM (≈ 6.38 µg/mL); in assay [4], no more than 0.5 µM.

For the molecule `O=[N+]([O-])c1cn2c(n1)OC[C@@H](OCc1ccc(OC(F)(F)F)cc1)C2` [PRETOMANID], the MIC in assay [1] came out at 0.6 µM (≈ 0.216 µg/mL); in assay [2], 0.7 µM (≈ 0.251 µg/mL); in assay [3], 3.1 µM (≈ 1.11 µg/mL); in assay [4] it was 12 µM (≈ 4.31 µg/mL).

`CC(=O)NC[C@H]1CN(c2ccc(N3CCOCC3)c(F)c2)C(=O)O1` [LINEZOLID]: the MIC was 6.3 µM (≈ 2.13 µg/mL) in assay [1], 1.9 µM (≈ 0.641 µg/mL) in assay [2], 65.2 µM (≈ 22 µg/mL) in assay [3] and greater than 128 µM in assay [4].

Take `CC(C)/N=c1\cc2n(-c3ccc(Cl)cc3)c3ccccc3nc-2cc1Nc1ccc(Cl)cc1` [CLOFAZIMINE]: the MIC in assay [1] was no more than 0.5 µM; in assay [2], 0.7 µM (≈ 0.331 µg/mL); in assay [3] it was 1.5 µM (≈ 0.71 µg/mL); in assay [4], 0.8 µM (≈ 0.379 µg/mL).

Take `CC(=O)O[C@H]1C[C@@]2(C)[C@@H](C[C@@H](O)[C@H]3[C@@]4(C)CC[C@@H](O)[C@@H](C)[C@@H]4CC[C@@]32C)/C1=C(\CCC=C(C)C)C(=O)O` [FUSIDIC ACID]: the MIC in assay [1] was 15.8 µM (≈ 8.16 µg/mL); in assay [2] it was 7 µM (≈ 3.62 µg/mL); in assay [3], 57.7 µM (≈ 29.8 µg/mL); in assay [4], 7.2 µM (≈ 3.72 µg/mL).

Consider `NCC[C@H](O)C(=O)N[C@@H]1C[C@H](N)[C@@H](O[C@H]2O[C@H](CN)[C@@H](O)[C@H](O)[C@H]2O)[C@H](O)[C@H]1O[C@H]1O[C@H](CO)[C@@H](O)[C@H](N)[C@H]1O` [AMIKACIN], for which the MIC in assay [1] is 0.5 µM (≈ 0.293 µg/mL); in assay [2], no more than 0.5 µM; in assay [3], no more than 0.5 µM; in assay [4], no more than 0.5 µM.

As for `CCC[C@@H]1C[C@@H](C(=O)N[C@@H]([C@H]2O[C@H](SC)[C@H](O)[C@@H](O)[C@H]2O)[C@@H](C)O)N(C)C1` [LINCOMYCIN], the MIC in assay [1] was greater than 128 µM; in assay [2], 104 µM (≈ 42.1 µg/mL); in assay [3] it was greater than 128 µM; in assay [4] it was greater than 128 µM.

In the case of `O=C1CN(/N=C/c2ccc([N+](=O)[O-])o2)C(=O)N1` [NITROFURANTOIN], the minimum inhibitory concentration (MIC) in assay [1] was greater than 128 µM; in assay [2], 0.9 µM (≈ 0.214 µg/mL); in assay [3], 63.9 µM (≈ 15.2 µg/mL); in assay [4], 32 µM (≈ 7.62 µg/mL).

Regarding `COc1cc(Cc2cnc(N)nc2N)cc(OC)c1OC` [TRIMETHOPRIM], the MIC in assay [1] is greater than 128 µM; in assay [2], greater than 128 µM; in assay [3] it was greater than 128 µM; in assay [4], 83.2 µM (≈ 24.2 µg/mL).

The values are drawn from ChEMBL document CHEMBL1145536, “Low-oxygen-recovery assay for high-throughput screening of compounds against nonreplicating Mycobacterium tuberculosis” (2007).
